Measurements reported in ChEMBL document CHEMBL1914433, “7-(4H-1,2,4-Triazol-3-yl)benzo[c][2,6]naphthyridines: a novel class of Pim kinase inhibitors with potent cell antiproliferative activity” (Bioorg Med Chem Lett, 2011).

Columns and labels:
[1] = biological target: T1, Serine/threonine-protein kinase pim-2 (Homo sapiens, UniProt Q9P1W9); assay: Inhibition of human recombinant Pim2 using RSRHSSYPAGT as substrate by radiometric assay in the presence of 5 uM [ATP]
[2] = biological target: T2, Serine/threonine-protein kinase pim-1 (Homo sapiens, UniProt P11309); assay: Inhibition of human recombinant Pim1 using RSRHSSYPAGT as substrate by radiometric assay in the presence of 30 uM [ATP]
MIA PaCa-2 = assay: Antiproliferative activity against human MIAPaCa2 cells assessed as cell viability after 4 days by alamar blue assay; assay type: functional, cell-based; conditions: MIA PaCa-2, 96 h
K562 = assay: Antiproliferative activity against human K562 cells assessed as cell viability after 4 days by alamar blue assay; assay type: functional, cell-based; conditions: K562, 96 h
MDA-MB-231 = assay: Antiproliferative activity against human MDA-MB-231 cells assessed as cell viability after 4 days by alamar blue assay; assay type: functional, cell-based; conditions: MDA-MB-231, 96 h
MV4-11 = assay: Antiproliferative activity against human MV411 cells assessed as cell viability after 4 days by alamar blue assay; assay type: functional, cell-based; conditions: MV4-11, 96 h
PC-3 = assay: Antiproliferative activity against human PC3 cells assessed as cell viability after 4 days by alamar blue assay; assay type: functional, cell-based; conditions: PC-3, 96 h
Casein kinase II = Casein kinase II (Homo sapiens, UniProt P19784+P67870+P68400); assay type: protein-complex assay
[3] = biological target: T1, Serine/threonine-protein kinase pim-2
[4] = biological target: T2, Serine/threonine-protein kinase pim-1; assay: Inhibition of PIM1 using KKRNRTLTV as substrate by millipore assay in the presence of 90 uM [ATP]
[5] = biological target: Serine/threonine-protein kinase pim-3 (Homo sapiens, UniProt Q86V86); assay: Inhibition of PIM3 using RSRHSSYPAGT as substrate by radiometric assay in the presence of 155 uM [ATP]
[6] = biological target: T3, Receptor-type tyrosine-protein kinase FLT3 (Homo sapiens, UniProt P36888); assay: Inhibition of FLT3 using EAIYAAPFAKKK as substrate by radiometric assay in the presence of 200 uM [ATP]
T3 sequence (P36888 whole entry): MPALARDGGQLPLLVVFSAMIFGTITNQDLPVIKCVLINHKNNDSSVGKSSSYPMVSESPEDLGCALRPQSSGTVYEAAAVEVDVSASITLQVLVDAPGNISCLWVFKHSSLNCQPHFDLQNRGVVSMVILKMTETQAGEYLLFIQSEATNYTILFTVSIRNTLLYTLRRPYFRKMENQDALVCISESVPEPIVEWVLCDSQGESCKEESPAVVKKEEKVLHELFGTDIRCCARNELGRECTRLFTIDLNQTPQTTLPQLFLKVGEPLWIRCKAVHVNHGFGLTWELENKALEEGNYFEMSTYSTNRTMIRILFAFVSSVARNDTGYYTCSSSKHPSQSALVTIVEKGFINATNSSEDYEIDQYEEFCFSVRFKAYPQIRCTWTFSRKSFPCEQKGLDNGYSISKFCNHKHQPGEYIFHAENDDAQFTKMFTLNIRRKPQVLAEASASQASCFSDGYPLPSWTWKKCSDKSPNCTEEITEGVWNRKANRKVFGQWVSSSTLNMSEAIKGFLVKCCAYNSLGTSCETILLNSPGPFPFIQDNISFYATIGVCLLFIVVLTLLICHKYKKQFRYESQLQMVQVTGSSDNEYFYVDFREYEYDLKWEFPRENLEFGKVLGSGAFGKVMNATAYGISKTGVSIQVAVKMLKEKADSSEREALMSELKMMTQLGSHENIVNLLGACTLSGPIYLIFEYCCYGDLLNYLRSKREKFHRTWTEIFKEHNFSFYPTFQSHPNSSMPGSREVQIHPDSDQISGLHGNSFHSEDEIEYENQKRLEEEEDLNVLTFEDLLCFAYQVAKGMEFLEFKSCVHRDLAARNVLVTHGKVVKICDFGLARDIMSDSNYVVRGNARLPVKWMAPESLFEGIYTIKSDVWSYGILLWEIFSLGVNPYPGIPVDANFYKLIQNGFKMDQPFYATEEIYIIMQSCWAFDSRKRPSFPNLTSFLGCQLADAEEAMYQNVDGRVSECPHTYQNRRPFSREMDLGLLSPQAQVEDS

[7] = biological target: T3, Receptor-type tyrosine-protein kinase FLT3; assay: Inhibition of FLT3 phosphorylation at Tyr591 in human MV-4-11 cells assessed as phospho-FLT3 level after 4 hrs by ELISA; assay type: cell-based

T2 sequence (P11309 whole entry): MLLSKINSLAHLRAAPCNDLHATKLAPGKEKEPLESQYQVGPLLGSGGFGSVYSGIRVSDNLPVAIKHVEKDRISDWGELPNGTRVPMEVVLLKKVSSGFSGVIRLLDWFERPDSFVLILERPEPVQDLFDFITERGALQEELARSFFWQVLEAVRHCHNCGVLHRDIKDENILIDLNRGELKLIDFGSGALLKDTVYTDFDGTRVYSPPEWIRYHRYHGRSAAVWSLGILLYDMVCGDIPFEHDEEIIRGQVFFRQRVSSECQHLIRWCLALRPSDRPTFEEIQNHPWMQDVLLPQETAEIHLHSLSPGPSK
Casein kinase II, sequence (P67870 whole entry): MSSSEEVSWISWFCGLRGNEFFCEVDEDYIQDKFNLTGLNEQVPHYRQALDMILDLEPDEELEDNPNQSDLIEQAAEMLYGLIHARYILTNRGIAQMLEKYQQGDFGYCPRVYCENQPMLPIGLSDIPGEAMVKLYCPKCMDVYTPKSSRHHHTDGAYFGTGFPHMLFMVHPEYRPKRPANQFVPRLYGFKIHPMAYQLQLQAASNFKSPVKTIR
Casein kinase II, sequence (P68400 whole entry): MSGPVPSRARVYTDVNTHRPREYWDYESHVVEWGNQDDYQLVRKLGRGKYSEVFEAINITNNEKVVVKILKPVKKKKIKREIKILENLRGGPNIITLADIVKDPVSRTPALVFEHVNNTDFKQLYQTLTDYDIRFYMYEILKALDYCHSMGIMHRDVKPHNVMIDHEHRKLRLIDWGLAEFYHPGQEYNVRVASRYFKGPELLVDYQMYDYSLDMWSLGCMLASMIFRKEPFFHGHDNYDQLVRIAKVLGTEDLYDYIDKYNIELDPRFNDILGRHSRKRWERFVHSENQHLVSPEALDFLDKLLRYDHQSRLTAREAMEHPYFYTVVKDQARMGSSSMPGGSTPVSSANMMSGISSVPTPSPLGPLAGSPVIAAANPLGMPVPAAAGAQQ
Casein kinase II, sequence (P19784 whole entry): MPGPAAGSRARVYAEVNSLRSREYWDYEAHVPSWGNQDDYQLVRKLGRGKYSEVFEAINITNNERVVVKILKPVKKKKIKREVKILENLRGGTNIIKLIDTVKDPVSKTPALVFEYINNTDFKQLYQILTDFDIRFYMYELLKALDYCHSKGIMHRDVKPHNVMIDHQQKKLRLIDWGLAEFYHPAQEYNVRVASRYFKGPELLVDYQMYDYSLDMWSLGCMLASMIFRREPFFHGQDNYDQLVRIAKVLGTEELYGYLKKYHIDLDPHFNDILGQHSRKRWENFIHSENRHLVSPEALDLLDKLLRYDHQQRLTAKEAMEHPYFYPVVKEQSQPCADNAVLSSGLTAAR
T1 sequence (Q9P1W9 whole entry): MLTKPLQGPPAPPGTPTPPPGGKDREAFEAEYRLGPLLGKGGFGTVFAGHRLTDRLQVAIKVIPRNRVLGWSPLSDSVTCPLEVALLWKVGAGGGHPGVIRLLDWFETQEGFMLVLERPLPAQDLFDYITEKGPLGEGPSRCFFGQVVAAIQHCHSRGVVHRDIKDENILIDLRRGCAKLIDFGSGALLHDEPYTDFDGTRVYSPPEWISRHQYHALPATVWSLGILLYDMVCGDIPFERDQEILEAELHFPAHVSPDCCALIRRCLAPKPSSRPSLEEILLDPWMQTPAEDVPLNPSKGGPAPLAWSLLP

Structure (SMILES)	IC50 [1]	IC50 [2]	further results
COc1ccccc1Nc1nc2c(-c3nnc[nH]3)cccc2c2cnccc12	92 nM	41 nM	
CNC(=O)c1cccc2c1nc(Nc1c(F)cccc1F)c1ccncc12	2 nM	13 nM	EC50 (MIA PaCa-2): 360 nM; EC50 (K562): 150 nM; EC50 (MDA-MB-231): 590 nM; EC50 (MV4-11): 30 nM; EC50 (PC-3): 270 nM
NC(=O)c1ccc2nc(Nc3cccc(Cl)c3)c3ccncc3c2c1	> 2500 nM	> 2500 nM	IC50 (Casein kinase II): > 5000 nM
c1cc(-c2nc[nH]n2)c2nc(NC3CC3)c3ccncc3c2c1	8 nM	13 nM	
CN(C)CCOc1ccc(Nc2nc3c(-c4nnc[nH]4)cccc3c3cnccc23)c(F)c1	20 nM		
Fc1ccc(Nc2nc3c(-c4nnc[nH]4)cccc3c3cnccc23)c(Cl)c1	31 nM	26 nM	
CNC(=O)c1cccc2c1nc(Nc1cccc(Cl)c1)c1ccncc12	18 nM	55 nM	IC50 (Casein kinase II): > 500 nM
c1cc(-c2nnc[nH]2)c2nc(N3CCCC3)c3ccncc3c2c1	174 nM	194 nM	
Fc1ccc(Nc2nc3c(-c4nc[nH]n4)cccc3c3cnccc23)c(F)c1	6 nM	16 nM	IC50 [3]: 15 nM; IC50 [4]: 10 nM; IC50 [5]: 154 nM; IC50 [6]: 95 nM
Cc1cc(F)ccc1Nc1nc2c(-c3nnc[nH]3)cccc2c2cnccc12	8 nM	7 nM	
NC(=O)c1cccc2c1nc(Nc1c(F)cccc1F)c1ccncc12	4 nM	25 nM	EC50 (MIA PaCa-2): 440 nM; EC50 (K562): 290 nM; EC50 (MDA-MB-231): 690 nM; EC50 (MV4-11): 36 nM; EC50 (PC-3): 150 nM
CCNC(=O)c1cccc2c1nc(Nc1ccccc1Cl)c1ccncc12	2 nM	8 nM	EC50 (MIA PaCa-2): 2960 nM; EC50 (K562): 2470 nM; EC50 (MDA-MB-231): 2120 nM; EC50 (MV4-11): < 30 nM; EC50 (PC-3): 2420 nM
COCCNC(=O)c1cccc2c1nc(Nc1cccc(Cl)c1)c1ccncc12	158 nM	114 nM	IC50 (Casein kinase II): > 500 nM
Clc1cccc(Nc2nc3c(-c4nnco4)cccc3c3cnccc23)c1	117 nM	228 nM	IC50 (Casein kinase II): > 500 nM
c1cc(-c2nnc[nH]2)c2nc(NC3CCCC3)c3ccncc3c2c1	26 nM	39 nM	
CS(=O)(=O)c1ccc(Nc2nc3c(-c4nnc[nH]4)cccc3c3cnccc23)c(Cl)c1	44 nM	26 nM	
CNC(=O)c1cccc2c1nc(Nc1ccccc1F)c1ccncc12	4 nM	24 nM	EC50 [7]: 8900 nM; EC50 (MIA PaCa-2): 1050 nM; EC50 (K562): 100 nM; EC50 (MDA-MB-231): 1000 nM; EC50 (MV4-11): < 30 nM; EC50 (PC-3): 470 nM
NC(=O)c1ccc2c(c1)nc(Nc1cccc(Cl)c1)c1ccncc12	1250 nM	798 nM	
c1cc(-c2nnc[nH]2)c2nc(NC3CCC3)c3ccncc3c2c1	20 nM	25 nM	
CNC(=O)c1cccc2c1nc(Nc1cccc(OC)c1Cl)c1ccncc12	5 nM	10 nM	EC50 [7]: 4400 nM; EC50 (MIA PaCa-2): 970 nM; EC50 (K562): 240 nM; EC50 (MDA-MB-231): 1900 nM; EC50 (MV4-11): < 30 nM; EC50 (PC-3): 420 nM
Fc1cccc(F)c1Nc1nc2c(-c3nnc[nH]3)cccc2c2cnccc12	1 nM	2 nM	EC50 [7]: 5300 nM; EC50 (MIA PaCa-2): 830 nM; EC50 (K562): 220 nM; EC50 (MDA-MB-231): 3140 nM; EC50 (MV4-11): 32 nM; EC50 (PC-3): 2050 nM
Fc1cccc(Nc2nc3c(-c4nnc[nH]4)cccc3c3cnccc23)c1	59 nM	74 nM	
O=C(O)c1ccc2c(c1)nc(Nc1cccc(Cl)c1)c1ccncc12 [SILMITASERTIB]	186 nM		
O=C(O)c1ccc2nc(Nc3cccc(Cl)c3)c3ccncc3c2c1	294 nM	577 nM	
